Results taken from patent US20130096107A1, “USE OF AMINODIHYDROTHIAZINES FOR THE TREATMENT OR PREVENTION OF DIABETES” (Hoffmann-La Roche Inc., priority 2009, published 2013).
Entries after “also recorded” stand apart in the source; their conditions may differ.

Assays:
pancreas of ZDF rats = assay: Assessment of β-cell function by in situ pancreas perfusion (glucose-stimulated insulin secretion); format: in vivo, rat
Protocol: (§1) Body weight and food intake were monitored daily. Blood glucose was measured weekly in all rats. After 3 weeks of treatment an oGTT was performed on 6 overnight fasted rats per groups. At about week 4 and after anesthesia, 2 to 3 ZDF rats per day and per group underwent pancreas surgery and in-situ pancreas perfusion with low/high glucose conditions. 120 eluted fractions per rat were collected for glucose and insulin quantification.
Rats were anesthetized (Temgesic (0.1 ml/100 g) first, then anesthetic cocktail: Ketamine (77 mg/kg), Xylazine (11 mg/kg), i.p. injection, volume 2 ml/kg). Pancreas was surgically isolated from other connecting organs and from nerves and veins and artery afferences and efferences, keeping access to abdominal aorta and portal vein which are both cannulated. Once surgery was done, rats were placed into a temperature controlled box (37° C.) and pancreata were connected to infusion pumps via abdominal aorta.
The glucose-stimulated insulin secretion (GSIS) was obtained by perfusing pancreata with Krebs-Ringer buffer containing low/high glucose concentration as described into protocol designed in FIG. 7. Basically, pancreata were first perfused with freshly prepared Krebs-Ringer solution (5 ml/min) containing low glucose concentration (2.8 mM) for about 30 minutes, stabilizing basal insulin secretion. Then, the first stimulation with high glucose concentration solution (16.7 mM) was given to sensitize the pancreata, leading to modest phase 1 and phase 2 insulin secretion.
Pancreas elution fractions were collected in 96-well plates (via a catheter introduced into the portal vein) at regular time intervals and immediately cooled down to 4° C. and subsequently stored at −20° C. until analyzed. At least, 120 eluted fractions per rat were collected for measurement of glucose and insulin levels.

[1] = tested on: BACE2 (Tmem27 cleavage) in isolated human pancreatic islets; details: 200 nM, 72 h, islets from two human donors
Protocol: Freshly isolated human islets from two different donors (male, 51 years, BMI: 27.5 kg/m2; […], BMI: 22.2 kg/m2; circa 3000 islets per donor) were obtained from Dr. D. Bosco (Cell Isolation and Transplantation Center, Department of Surgery, Geneva, Switzerland) and maintained in CMRL-1066 (Invitrogen) at 5.6 mmol/l glucose supplemented with 10% FCS, 100 U/ml penicillin, 100 μg/ml streptomycin and 100 μg/ml gentamycin (Sigma) for 2 days before experiments. The present investigation was approved by the institutional ethics committee. […] Islets were collected by centrifugation and total proteins were extracted using CELYA lysis buffer CLB1 (Cat*9000, Zeptosens) following the manufacturer's protocol.
Total islet proteins (10 μg) were fractionated by NuPAGE 4-12% Bis-TrisGel (Cat*NP0321Box, Invitrogen) and transferred to nitrocellulose using iBlot system (Cat*IB3010-01, Invitrogen).

[2] = tested on: Zucker Diabetic Fatty (ZDF) rats; assay: Oral glucose tolerance test (oGTT) after chronic treatment of ZDF rats; format: in vivo, rat
Protocol: This study was conducted with male ZDF rats [ZDF/gmiCrl fa/fa] and lean rats [ZDF/gmiCrl fa/+] (Charles River Laboratories, Sulzfeld, Germany). The ZDF rats are a commonly used model of human type 2 diabetes characterized by insulin resistance, β-cell defects and hyperglycemia. Onset of diabetes in males is at the age of 8 to 10 weeks when fed a diabetogenic diet. All rats (ZDF and Lean rats) with an age of 6 weeks at the beginning of the experiment are fed a special diet (“PURINA PMI 5008”, ZDF_diet=Ssniff R/M−H) and housed 1 per cage (type 3). Ambient temperature is approximately 21° C. and relative humidity 55-65%. A 12 hours light-dark cycle is maintained in the rooms with all tests being performed during the light phase. Access to food and tap water is ad libitum.
as §1
An oGTT was conducted on day 18 of treatment. After on overnight fast of approximately 16 h post treatment, rats were given a glucose load of 2 g/kg by gavage. Blood samples were collected immediately prior to glucose challenge (0 min) and +10, +30, +60 and +120 min after glucose challenge and blood glucose and other plasma parameters were determined.
Blood glucose was measured with a blood glucose monitoring system (Accu-Chek Aviva, Roche Diagnostics GmbH, Rotkreuz, Switzerland). Insulin was measured by ELISA, using the Mercodia Rat Insulin ELISA (Mercodia AB, Uppsala, Sweden).
Data were analyzed using the software SAS/JMP for Windows (version 6.0.0, SAS Institute Inc., Cary, N.C.). Data were expressed as mean±SEM (standard error of the mean). The number of rats was 6 per group. Comparison was made versus Vehicle, using Analysis of Variance ANOVA followed by post hoc Dunnett's test.

C[C@@]1(c2cc(NC(=O)c3ccc(Cl)cn3)ccc2F)CCSC(N)=N1 (single isomer, unassigned) [Example 1]
AUC off-response of insulin secretion (perfused pancreas) (pancreas of ZDF rats; 30 mg/kg, 3 to 4 weeks of treatment, after high glucose 16.7 mM, versus vehicle): reduced | basal insulin secretion (perfused pancreas) (pancreas of ZDF rats; 30 mg/kg, 3 to 4 weeks of treatment, low glucose 2.8 mM, versus vehicle): reduced | insulin secretion profile (Phase 1/Phase 2) (pancreas of ZDF rats; ZDF rats, chronic treatment, in situ pancreas perfusion): normalized the insulin secretion profile (Phase 1/Phase 2) | full-length TMEM27 (immunoblot) [1]: stabilized the full length of TMEM27; also recorded: preservation of full-length TMEM 27 | Insulin AUC (0-120 minutes) during oGTT ([2]; 8.5 week old ZDF rats treated 17 days, 0.2, 5, 30 mg/kg p.o.): dose-dependent increase in insulin levels without reaching significance | fasting insulin levels ([2]; 8.5 week old ZDF rats treated 17 days, Example 1 p.o., Liraglutide 0.4 mg/kg s.c.): did not change fasting insulin levels compared to vehicle | insulin levels during oGTT (post glucose challenge) ([2]; 8.5 week old ZDF rats treated 17 days, glucose 2 g/kg, Example 1 0.2, 5, 30 mg/kg p.o., Liraglutide 0.4 mg/kg s.c.): increased insulin levels (at peak and up to 60 minutes post glucose challenge); also recorded: dose-dependent increase in insulin levels secreted during oGTT | fasting blood glucose (FBG) after overnight fasting ([2]; 8.5 week old ZDF rats, Example 1 0.2-5-30 mg/kg p.o., Liraglutide 0.4 mg/kg s.c., 17 days): trend to reduce fasting blood glucose after overnight fasting conditions (FBG) without reaching significance | efficacy in oGTT compared with Liraglutide ([2]; Example 1 30 mg/kg p.o. versus Liraglutide 0.4 mg/kg s.c., chronic treatment): close to that induced by chronic treatment with Liraglutide | post-challenged glucose levels ([2]; ZDF rats after 17 days of oral treatment (summary)): reduced post-challenged glucose levels | improvement of glucose tolerance (blood glucose during oGTT) ([2]; ZDF rats, 30 mg/kg p.o. daily for 17 days, versus vehicle): reached significance at 30′, 60′ and 120′ post glucose challenge | glucose area under the curve (AUC 0-120 minutes) during oGTT ([2]; ZDF rats, 0.2, 5, 30 mg/kg p.o. daily for 17 days, oGTT day 18, versus vehicle): dose-dependently reduced; also recorded: dose dependent reduction of glucose AUC reaching significant values at 30 mg/kg
